Source: patent publication US9732093B2, “FLAP modulators” (JANSSEN PHARMACEUTICA NV, priority 2013, dated 2017)
Counter-ions that a name gives are not always drawn.

Molecular target: human FLAP (Homo sapiens (Human), UniProt P20292)
Experiment: FLAP binding assay (HTRF format)
Conditions: human FLAP wild type membranes, HTRF format; Table 6 (additional runs)
Experimental: The ability of the compounds of the present invention to treat a FLAP-mediated disease and/or disorder, or associated symptoms or complications thereof, was determined using the following procedures. Binding assay data represent the average value obtained from two different assay plates, with samples run in duplicate on each plate. Human whole blood assay data represent a single replicate on an assay plate using whole blood from at least one healthy donor.
Data are expressed as a HTRF ratio.

Chain of human FLAP (P20292 whole entry): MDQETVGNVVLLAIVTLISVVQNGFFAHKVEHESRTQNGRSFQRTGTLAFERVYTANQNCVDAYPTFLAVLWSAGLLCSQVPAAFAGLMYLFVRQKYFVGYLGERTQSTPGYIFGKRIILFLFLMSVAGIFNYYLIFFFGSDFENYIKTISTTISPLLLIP

| SMILES | Ki [nM] |
| --- | --- |
| Nc1cnc(-c2ccc(C3CCC3)c(OCc3ccc(Br)cc3)c2F)cn1 [Example 340, 5-{3-[(4-Bromobenzyl)oxy]4-cyclobutyl-2-fluorophenyl}pyrazin-2-amine] | 650 |
| N#Cc1cccc(Oc2c(C3CCC3)ccc(-c3cnc(N)cn3)c2F)n1 [Example 111, 6-[3-(5-Aminopyrazin-2-yl)-6-cyclobutyl-2-fluorophenoxy]pyridine-2-carbonitrile] | 2.4 |
| Nc1cnc(-c2ccc(C3CCC3)c(OCc3ccc(F)cc3)c2F)cn1 [Compound 28, 5-{4-Cyclobutyl-2-fluoro-3-[(4-fluorobenzyl)oxy]phenyl}pyrazin-2-amine] | 66.2 |
| Nc1cnc(-c2ccc(C3CCC3)c(OCc3ccc(C(=O)O)cc3)c2F)cn1 [Compound 5, 4-{[3-(5-Aminopyrazin-2-yl)-6-cyclobutyl-2-fluorophenoxy]methyl}benzoic acid] | 10.2 |
| Nc1cnc(-c2ccc(C3CCC3)c(Oc3cccc(C(F)(F)F)n3)c2F)cn1 [Example 102, 5-(4-Cyclobutyl-2-fluor-3-{[6-(trifluoromethyl)pyridin-2-yl]oxy}phenyl)pyrazin-2-amine] | 1.8 |
| Nc1cnc(-c2ccc(C3CCC3)c(OCC3CCC3)c2F)cn1 [Example 82, 5-[4-Cyclobutyl-3-(cyclobutylmethoxy)-2-fluorophenyl]pyrazin-2-amine] | 208 |
| CNS(=O)(=O)c1ccc(COc2c(C3CCC3)ccc(-c3cnc(N)cn3)c2F)cc1 [Compound 27, 4-{[3-(5-Aminopyrazin-2-yl)-6-cyclobutyl-2-fluorophenoxy]methyl}-N-methylbenzenesulfonamide] | 6.4 |
| Nc1cnc(-c2ccc(C3CCC3)c(Oc3ncccc3Cl)c2F)cn1 [Example 122] | 3.7 |
| Nc1cnc(-c2ccc(C3CCC3)c(OCC3CC3)c2F)cn1 [Example 72, 5-[4-Cyclobutyl-3-(cyclopropylmethoxy)-2-fluorophenyl]pyrazin-2-amine] | 23.7 |
| Nc1cnc(-c2ccc(C3CCC3)c(OCc3cccc(C(=O)O)c3)c2F)cn1 [Compound 4, 3-{[3-(5-Aminopyrazin-2-yl)-6-cyclobutyl-2-fluorophenoxy]methyl}benzoic acid] | 5.8 |
| Nc1cnc(-c2ccc(C3CCC3)c(OCc3ccncc3)c2F)cn1 [Compound 14, 5-[4-Cyclobutyl-2-fluoro-3-(pyridin-4-ylmethoxy)phenyl]pyrazin-2-amine] | 22.6 |
| Nc1cnc(-c2ccc(C3CCC3)c(OCC3CCCNC3)c2F)cn1 (racemic) [Example 299, racemic 5-[4-Cyclobutyl-2-fluoro-3-(piperidin-3-ylmethoxy)phenyl]pyrazin-2-amine] | 1960 |
| Nc1cnc(-c2ccc(C3CCC3)c(O)c2F)cn1 [B, 3-(5-Aminopyrazin-2-yl)-6-cyclobutyl-2-fluorophenol] | 83.9 |
| Nc1cnc(-c2ccc(C3CCC3)c(Oc3ccc(C(F)(F)F)nn3)c2F)cn1 [Example 106, 5-(4-Cyclobutyl-2-fluoro-3-{[6-(trifluoromethyl)pyridazin-3-yl]oxy}phenyl)pyrazin-2-amine] | 12.3 |
| CS(=O)(=O)N1CCC(COc2c(C3CCC3)ccc(-c3cnc(N)cn3)c2F)CC1 [Example 68, 5-(4-Cyclobutyl-2-fluoro-3-{[1-(methylsulfonyl)piperidin-4-yl]methoxy}phenyl)pyrazin-2-amine] | 136 |
| Nc1cnc(-c2ccc(C3CCC3)c(OCC3CCCCC3)c2F)cn1 [Example 71, 5-[4-Cyclobutyl-3-(cyclohexylmethoxy)-2-fluorophenyl]pyrazin-2-amine] | 421 |
| COC(=O)c1ccc(Oc2c(C3CCC3)ccc(-c3cnc(N)cn3)c2F)nc1 [Example 107, Methyl 6-[3-(5-aminopyrazin-2-yl)-6-cyclobutyl-2-fluorophenoxy]pyridine-3-carboxylate] | 5.4 |
| Nc1cnc(-c2ccc(C3CCC3)c(Oc3ncc(C(F)(F)F)cn3)c2F)cn1 [Example 104, 5-(4-Cyclobutyl-2-fluoro-3-{[5-(trifluoromethyl)pyrimidin-2-yl]oxy}phenyl)pyrazin-2-amine] | 18.3 |
| Nc1cnc(-c2ccc(C3CCC3)c(OCc3ccc(F)c(F)c3)c2F)cn1 [Compound 33, 5-{4-Cyclobutyl-3-[(3,4-difluorobenzyl)oxy]-2-fluorophenyl}pyrazin-2-amine] | ~250 |
| CS(=O)(=O)c1ccc(COc2c(C3CCC3)ccc(-c3cnc(N)cn3)c2F)cc1 [Compound 7, 5-(4-Cyclobutyl-2-fluoro-3-{[4-(methylsulfonyl)benzyl]oxy}phenyl)pyrazin-2-amine] | 7.4 |
| Nc1cnc(-c2ccc(C3CCC3)c(Oc3ccc(C(F)(F)F)cn3)c2F)cn1 [Example 113, 5-(4-Cyclobutyl-2-fluoro-3-{[5-(trifluoromethyl)pyridin-2-yl]oxy}phenyl)pyrazin-2-amine] | 30.8 |

Second part, the molecule after the results:

| Ki [nM] | SMILES |
| --- | --- |
| 16.2 | Nc1cnc(-c2ccc(C3CCC3)c(OCc3ccccn3)c2F)cn1 [Compound 24, 5-[4-Cyclobutyl-2-fluoro-3-(pyridin-2-ylmethoxy)phenyl]pyrazin-2-amine] |
| 39.4 | Nc1cnc(-c2ccc(C3CCC3)c(Oc3cnc(C(F)(F)F)cn3)c2F)cn1 [Example 105, 5-(4-Cyclobutyl-2-fluoro-3-{[5-(trifluoromethyl)pyrazin-2-yl]oxy}phenyl)pyrazin-2-amine] |
| 14 | Cc1ccnc(Oc2c(C3CCC3)ccc(-c3cnc(N)cn3)c2F)n1 [Example 69, 5-{4-Cyclobutyl-2-fluoro-3-[(4-methylpyrimidin-2-yl)oxy]phenyl}pyrazin-2-amine] |
| 62.8 | Nc1cnc(-c2ccc(C3CCC3)c(OCc3ccc(C(F)(F)F)cc3)c2F)cn1 [Compound 1, 5-(4-Cyclobutyl-2-fluoro-3-{[4-(trifluoromethyl)benzyl]oxy}phenyl)pyrazin-2-amine] |
| 101 | Nc1cnc(-c2ccc(C3CCC3)c(OCC3CCOCC3)c2F)cn1 [Example 264, 5-[4-Cyclobutyl-2-fluoro-3-(tetrahydro-2H-pyran-4-ylmethoxy)phenyl]pyrazin-2-amine] |
| 868 | Nc1cnc(-c2ccc(C3CCC3)c(OCC3CCNCC3)c2F)cn1 [Example 298, 5-[4-Cyclobutyl-2-fluoro-3-(piperidin-4-ylmethoxy)phenyl]pyrazin-2-amine hydrogen chloride salt] |
| 28.1 | N#Cc1ccc(Oc2c(C3CCC3)ccc(-c3cnc(N)cn3)c2F)cn1 [Example 108, 5-[3-(5-Aminopyrazin-2-yl)-6-cyclobutyl-2-fluorophenoxy]pyridine-2-carbonitrile] |
| 44.5 | Nc1cnc(-c2ccc(C3CCC3)c(OCc3ccccc3)c2F)cn1 [Example 83, 5-[3-(Benzyloxy)-4-cyclobutyl-2-fluorophenyl]-pyrazin-2-amine] |
| 6.9 | Nc1cnc(-c2ccc(C3CCC3)c(OCc3ccccc3C(=O)O)c2F)cn1 [Example 46, 2-{[3-(5-Aminopyrazin-2-yl)-6-cyclobutyl-2-fluorophenoxy]methyl}benzoic acid] |
| 5.5 | COc1cc(Oc2c(C3CCC3)ccc(-c3cnc(N)cn3)c2F)nc(N)n1 [Example 99, 4-[3-(5-Aminopyrazin-2-yl)-6-cyclobutyl-2-fluorophenoxy]-6-methoxypyrimidin-2-amine] |
| 36.5 | Nc1cnc(-c2ccc(C3CCCCC3)c(Oc3ncccn3)c2F)cn1 [Example 320, 5-(4-Cyclohexyl-2-fluoro-3-(pyrimidin-2-yloxy)phenyl)pyrazin-2-amine] |
